Values of other authors as cited in patent publication US9993560B2, “Rifaximin complexes” (Cipla Limited, priority 2008, dated 2018).

SMILES | solubility in water (water) | solubility compared with other known forms of rifaximin
CO[C@H]1/C=C/O[C@@]2(C)Oc3c(C)c(O)c4c(O)c(c5c(nc6cc(C)ccn65)c4c3C2=O)NC(=O)/C(C)=C\C=C\[C@H](C)[C@H](O)[C@@H](C)[C@@H](O)[C@@H](C)[C@H](OC(C)=O)[C@@H]1C [rifaximin, (2S, 16Z, 18E, 20S, 21S, 22R, 23R, 24R, 25S, 26S, 27S, 28E)-5,6,21,23,25-pentahydroxy-27-methoxy-2,4,11,16,20,22,24,26-octamethyl-2,7-(epoxypentadeca-[1,11,13]-trienimino)benzofuro-[4,5-e]-pyrido-[1,2-a]-benzimidazole-1,15-(2H)-dione, 25-acetate] | sparingly soluble | –
CO[C@H]1/C=C/O[C@@]2(C)Oc3c(C)c(O)c4c(O)c(c5c(nc6cc(C)ccn65)c4c3C2=O)NC(=O)/C(C)=C\C=C\[C@H](C)[C@H](O)[C@@H](C)[C@@H](O)[C@@H](C)[C@H](OC(C)=O)[C@@H]1C [β-form of rifaximin] | – | least soluble known form of rifaximin
